From US11470793B2, “Bacterial strain having anti-fungal properties and uses thereof” (Kontzamanis Graumann Smith MacMillan Inc., priority 2019, dated 2022)

System: F. graminearum 3ADON (high toxin producing strain)
Format: cell-based, Fusarium graminearum

CC(/C=C/[C@@]1(C)[C@H](C)CCC(=O)[C@@H]1C)=C\Cc1c(O)cc(C)c(C=O)c1O [cylindrol B, 4-dihydroxy-6-methyl-3-[(2E,4E)-3-methyl-5-[(1R,2R,6R)-1,2,6-trimethyl-3-oxocyclohexyl]penta-2,4-dienyl]benzaldehyde]
clearing of fungus around the well: showed a clearing of fungus around the well
